From patent US5120538A, “Combinations of compounds isolated from curcuma spp as anti-inflammatory agents” (PT Darya-Varia Laboratoria, priority 1990, dated 1992)

Key:
[1] = tested on: choleretic effect of curcumin; details: cited from earlier work
cholesterol levels = details: rats; cited from earlier work
bacteria = details: in vitro; cited from earlier work
inflammation = details: cited from earlier work
[2] = tested on: Oedema of right-hind paw induced by injection of 1% carrageenan solution; test: Carrageenan-induced paw oedema inhibition in rats; type: in vivo, Male inbred albino rats, Wistar derived LMR strain; details: rat, 0.01 g one hour before induction, controls safflower oil
Description: Male inbred albino rats of the Wistar derived LMR strain, weighing between 140 and 160 grams are used. Each treatment group consists of ten rats. The rats are fasted for one night and weighed the next morning. Oedema is induced in the right-hind paw of each rat by means of an injection of 1% carrageenan solution. Before the injection and each hour after injection, the volume of the right-hind paw is measured. Measurement of the volume is done by dipping the rats paw into a liquid up to a predetermined mark and measuring or weighing the displaced liquid. The apparatus for measuring volume is calibrated against objects with known volumes. Animals in the treatment groups are administered the drug orally once an hour for three hours before induction of oedema. Animals in the control groups are administered either safflower oil or polyethyleneglycol (PEG) one hour before induction. Piroxicam, a known anti-inflammatory agent used as a positive control, is administered one hour before induction.

In the case of O=C(C=Cc1ccc(O)cc1)CC(=O)C=Cc1ccc(O)cc1 [Bis-desmethoxycurcumin, dihydroxydicinnamoyl methane], the “choleretic effect of curcumin” value [1] is listed as “inhibit the choleretic effect of curcumin”.

In the case of COc1cc(/C=C/C(=O)CC(=O)/C=C/c2ccc(O)c(OC)c2)ccc1O [Curcumin, diferuloylmethane], the cholesterol levels (cholesterol levels) is given as “lower cholesterol levels”, the antibacterial activity (bacteria) is given as “antibacterial activity” and the anti-inflammatory effects (inflammation) is given as “anti-inflammatory effects”.

For CN1C(C(=O)Nc2ccccn2)=C(O)c2ccccc2S1(=O)=O [Piroxicam], the “% Oedema Inhibition over 6 Hr. Period After Induction, 1 hr.” value ([2]; 1 hr. after induction) was 25.9%, the “% Oedema Inhibition over 6 Hr. Period After Induction, 2 hr.” value ([2]; 2 hr. after induction) was 49.0% and the “% Oedema Inhibition over 6 Hr. Period After Induction, 3 hr.” value ([2]; 3 hr. after induction) was 52.6%. The “% Oedema Inhibition over 6 Hr. Period After Induction, 4 hr.” value ([2]; 4 hr. after induction) was 43.4%, the “% Oedema Inhibition over 6 Hr. Period After Induction, 5 hr.” value ([2]; 5 hr. after induction) was 41.4% and the “% Oedema Inhibition over 6 Hr. Period After Induction, 6 hr.” value ([2]; 6 hr. after induction) was 36.5%.
